Source: US20250082931A1, “Treating Gastric Cancer Using TTFields Combined with XELOX, FOLFOX or the Individual Constituents Thereof” (Novocure GmbH, priority 2019, published 2025)

What was measured:
AGS cells [1] = assay: Apoptosis analysis by Annexin V / 7AAD staining; type: cell-based; settings: for AnnV+ 7AAD+ cell fraction / AnnV+ 7AAD− cell fraction / AnnV− 7AAD+ cell fraction / AnnV− 7AAD− cell fraction: 72 h
Protocol: After 72 h of treatment the media and the cells were collected, and cytotoxicity was determined by cell counts. Cells (including cells from the media) were stained for Annexin V and 7AAD for apoptosis analysis. For the testing of the clonogenic effect, cells were seeded for colonies.
Cells were seeded on inovitro dishes and petri dishes 24 h before starting the experiments. Media containing the indicated concentration of each chemotherapy component alone or FOLFOX and control media was added to the cells and the dishes were connected to TTFields (as in SOP-BI-009) or grown in 37° C., 5% CO2 for 72 h. Each treatment included 8 repeats (8 dishes). The media was replaced every 24 h. At the end of the experiment the cells were collected, and cytotoxicity was determined by cell counts, small number of cells were seeded for colonies and the cells (including cells from the media) were stained for Annexin V and 7AAD for apoptosis analysis.
Apoptotic effect: Average of cell fraction of each marker staining (Annexin V and 7AAD) of at least 5 dishes from each treatment was calculated in Excel software. The averages from these repeats was calculated to averages and is presented in stacked bar graph using GraphPed software.

AGS cells [2] = assay: Clonogenic effect (colonies count); type: cell-based; settings: for colonies count: 72 h
Protocol: (§1) After 72 h of treatment the media and the cells were collected, and cytotoxicity was determined by cell counts. […] For the testing of the clonogenic effect, cells were seeded for colonies.
(§2) After 6-14 days the colonies were fixed, stained and counted to determine clonogenic effect. The overall effect was calculated by multiplying the cytotoxic effect and the clonogenic effect.
(§3) Clonogenic effect: The colonies from each well were counted using ImageJ software. Average and standard deviation of colony number of at least 5 wells from each treatment were calculated in excel software. The averages from these repeats was calculated to averages and standard errors and is presented as percent from control (no drug treatment) in XY graph of points with error bars using GraphPed software. Significant was determine by 2-way ANOVA followed Multiple comparison using GraphPed software.

KATO III cells [3] = assay: Clonogenic effect (colonies count); settings: for colonies count: 72 h;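 as to all read-outs here: after treatment, KATO III cells were reseeded and grown 6–14 days, then colonies were fixed, stained and counted, expressed as percent of untreated (no drug) control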
Protocol: as §1, §2, §3

KATO III cells [4] = assay: Overall effect (cytotoxic effect x clonogenic effect); settings: 72 h
Protocol: as §2
(§4) Overall effect: Each colony number was multiply in the percent of cytotoxic effect of its dish and averages and standard deviations of each treatment were calculated in Excel software. […] Significant was determine by 2-way ANOVA followed Multiple comparison using GraphPed software.

AGS cells [5] = assay: as above; type: cell-based; settings: for overall effect (colonies count multiplying the cytotoxic effect): 0.5 uM, 72 h
Protocol: as §2, §4

[6] = 0.5 uM, + TTFields 150 kHz 1.0 V/cm
[7] = 1.5 uM, + TTFields 150 kHz 1.0 V/cm
[8] = 4.5 uM, + TTFields 150 kHz 1.0 V/cm
[9] = 13.5 uM, + TTFields 150 kHz 1.0 V/cm
[10] = FOLFOX experiment, 0.5 uM, + TTFields 150 kHz 1.0 V/cm
[11] = FOLFOX experiment, 0.5 uM, no TTFields
[12] = 1.5 uM, + TTFields 150 kHz 1.6 V/cm
[13] = 4.5 uM, + TTFields 150 kHz 1.6 V/cm
[14] = 13.5 uM, + TTFields 150 kHz 1.6 V/cm
[15] = 40 uM, + TTFields 150 kHz 1.6 V/cm

For `O=c1[nH]cc(F)c(=O)[nH]1` [5-FU, 5-fluorouracil], the “elevation in percent of cells that undergo apoptosis, drug + TTFields compared to drug alone” value (AGS cells [1]) was “higher”, the “AnnV+ 7AAD+ cell fraction” value (AGS cells [1]; [6]) was 8.00% and the “AnnV+ 7AAD− cell fraction” value (AGS cells [1]; [6]) was 6.38%. The “AnnV− 7AAD+ cell fraction” value (AGS cells [1]; [6]) was 1.03%, the “AnnV− 7AAD− cell fraction” value (AGS cells [1]; [6]) was 84.58% and the “AnnV+ 7AAD+ cell fraction” value (AGS cells [1]; 0.5 uM, no TTFields) was 5.33%. The “AnnV+ 7AAD− cell fraction” value (AGS cells [1]; 0.5 uM, no TTFields) was 4.48%, the “AnnV− 7AAD+ cell fraction” value (AGS cells [1]; 0.5 uM, no TTFields) was 1.40% and the “AnnV− 7AAD− cell fraction” value (AGS cells [1]; 0.5 uM, no TTFields) was 88.78%. The “AnnV+ 7AAD+ cell fraction” value (AGS cells [1]; [7]) was 9.05%, the “AnnV+ 7AAD− cell fraction” value (AGS cells [1]; [7]) was 5.90% and the “AnnV− 7AAD+ cell fraction” value (AGS cells [1]; [7]) was 1.28%. The “AnnV− 7AAD− cell fraction” value (AGS cells [1]; [7]) was 83.80%, the “AnnV+ 7AAD+ cell fraction” value (AGS cells [1]; 1.5 uM, no TTFields) was 5.48% and the “AnnV+ 7AAD− cell fraction” value (AGS cells [1]; 1.5 uM, no TTFields) was 5.03%. For the same compound, the “AnnV− 7AAD+ cell fraction” value (AGS cells [1]; 1.5 uM, no TTFields) was 1.23%, the “AnnV− 7AAD− cell fraction” value (AGS cells [1]; 1.5 uM, no TTFields) was 88.25% and the “AnnV+ 7AAD+ cell fraction” value (AGS cells [1]; [8]) was 12.35%. For the same compound, the “AnnV+ 7AAD− cell fraction” value (AGS cells [1]; [8]) was 6.78%, the “AnnV− 7AAD+ cell fraction” value (AGS cells [1]; [8]) was 2.48% and the “AnnV− 7AAD− cell fraction” value (AGS cells [1]; [8]) was 78.43%. The “AnnV+ 7AAD+ cell fraction” value (AGS cells [1]; 4.5 uM, no TTFields) was 6.40%, the “AnnV+ 7AAD− cell fraction” value (AGS cells [1]; 4.5 uM, no TTFields) was 5.08% and the “AnnV− 7AAD+ cell fraction” value (AGS cells [1]; 4.5 uM, no TTFields) was 1.25%. For the same compound, the “AnnV− 7AAD− cell fraction” value (AGS cells [1]; 4.5 uM, no TTFields) was 87.28%, the “AnnV+ 7AAD+ cell fraction” value (AGS cells [1]; [9]) was 14.45% and the “AnnV+ 7AAD− cell fraction” value (AGS cells [1]; [9]) was 8.70%. The “AnnV− 7AAD+ cell fraction” value (AGS cells [1]; [9]) was 2.63%, the “AnnV− 7AAD− cell fraction” value (AGS cells [1]; [9]) was 74.20% and the “AnnV+ 7AAD+ cell fraction” value (AGS cells [1]; 13.5 uM, no TTFields) was 8.45%. For the same compound, the “AnnV+ 7AAD− cell fraction” value (AGS cells [1]; 13.5 uM, no TTFields) was 6.20%, the “AnnV− 7AAD+ cell fraction” value (AGS cells [1]; 13.5 uM, no TTFields) was 0.90% and the “AnnV− 7AAD− cell fraction” value (AGS cells [1]; 13.5 uM, no TTFields) was 84.45%. For the same compound, the “AnnV+ 7AAD+ cell fraction” value (AGS cells [1]; [10]) was 10.3%, the “AnnV+ 7AAD− cell fraction” value (AGS cells [1]; [10]) was 7.3% and the “AnnV− 7AAD+ cell fraction” value (AGS cells [1]; [10]) was 1.7%. For the same compound, the “AnnV− 7AAD− cell fraction” value (AGS cells [1]; [10]) was 80.8%, the “AnnV+ 7AAD+ cell fraction” value (AGS cells [1]; [11]) was 4.3% and the “AnnV+ 7AAD− cell fraction” value (AGS cells [1]; [11]) was 4.8%. For the same compound, the “AnnV− 7AAD+ cell fraction” value (AGS cells [1]; [11]) was 1.8%, the “AnnV− 7AAD− cell fraction” value (AGS cells [1]; [11]) was 89.1% and the colonies count (AGS cells [2]; [6]) was 51 % from control. For the same compound, the colonies count (AGS cells [2]; 0.5 uM, no TTFields) was 95 % from control, the colonies count (AGS cells [2]; [7]) was 59 % from control and the colonies count (AGS cells [2]; 1.5 uM, no TTFields) was 90 % from control. The colonies count (AGS cells [2]; [8]) was 35 % from control, the colonies count (AGS cells [2]; 4.5 uM, no TTFields) was 74 % from control and the colonies count (AGS cells [2]; [9]) was 11 % from control. It also gave a colonies count (AGS cells [2]; 13.5 uM, no TTFields) of 9 % from control, a colonies count (AGS cells [2]; 40 uM, + TTFields 150 kHz 1.0 V/cm) of 0 % from control and a colonies count (AGS cells [2]; 40 uM, no TTFields) of 0 % from control. For the same compound, the colonies count (AGS cells [2]; [10]) was 59 % from control, the colonies count (AGS cells [2]; [11]) was 100 % from control and the “colonies number (clonogenic effect and overall effect), drug + TTFields compared to drug alone” value (AGS cells [2]; Two-way ANOVA P<0.001) was “significant reduction in colonies number”. It also gave a colonies count (KATO III cells [3]; [12]) of 50 % from control, a colonies count (KATO III cells [3]; 1.5 uM, no TTFields) of 83 % from control and a colonies count (KATO III cells [3]; [13]) of 38 % from control. It also gave a colonies count (KATO III cells [3]; 4.5 uM, no TTFields) of 55 % from control, a colonies count (KATO III cells [3]; [14]) of 8 % from control and a colonies count (KATO III cells [3]; 13.5 uM, no TTFields) of 9 % from control. For the same compound, the colonies count (KATO III cells [3]; [15]) was 1 % from control, the colonies count (KATO III cells [3]; 40 uM, no TTFields) was 2 % from control and the “colonies number (clonogenic effect and overall effect), drug + TTFields compared to drug alone” value (KATO III cells [3]; Two-way ANOVA P<0.001) was “significant reduction in colonies number”. For the same compound, the “overall effect (colonies count multiplying the cytotoxic effect)” value (KATO III cells [4]; [12]) was 24 % from control, the “overall effect (colonies count multiplying the cytotoxic effect)” value (KATO III cells [4]; 1.5 uM, no TTFields) was 58 % from control and the “overall effect (colonies count multiplying the cytotoxic effect)” value (KATO III cells [4]; [13]) was 18 % from control. The “overall effect (colonies count multiplying the cytotoxic effect)” value (KATO III cells [4]; 4.5 uM, no TTFields) was 34 % from control, the “overall effect (colonies count multiplying the cytotoxic effect)” value (KATO III cells [4]; [14]) was 3 % from control and the “overall effect (colonies count multiplying the cytotoxic effect)” value (KATO III cells [4]; 13.5 uM, no TTFields) was 4 % from control. The “overall effect (colonies count multiplying the cytotoxic effect)” value (KATO III cells [4]; [15]) was 0 % from control, the “overall effect (colonies count multiplying the cytotoxic effect)” value (KATO III cells [4]; 40 uM, no TTFields) was 0 % from control and the “interaction with TTFields based on the overall effect” value (AGS cells [5]) was “synergistic”. The “overall effect (colonies count multiplying the cytotoxic effect)” value (AGS cells [5]; + TTFields 150 kHz 1.0 V/cm) was 36 % from control and the “overall effect (colonies count multiplying the cytotoxic effect)” value (AGS cells [5]; no TTFields) was 97 % from control.
